Reference: patent US20230285374A1, “THERAPEUTIC METHODS USING VADADUSTAT” (Akebia Therapeutics, Inc., priority 2019, published 2023)

Columns and labels:
[1] = tested on: stage 3, 4, or 5 CKD patients; experiment: Phase 2a clinical trials in stage 3, 4, or 5 CKD patients (iron parameters vs placebo); type: in vivo, human
Protocol: In certain embodiments, unsaturated iron binding capacity (UIBC) may be determined by adding serum to an alkaline buffer/reductant solution containing a known concentration of iron to saturate the available binding sites on transferrin. The Ferrozine chromogen reacts only with the Fe^2+; therefore, an iron reductant is added to insure that all iron is present in the ferrous state. The excess unbound divalent iron reacts with Ferrozine chromogen to form a magenta complex, which is measure spectrophotometrically. The unsaturated iron binding capacity (UIBC) is equal to the difference measured in the concentrations of the added iron solution and the excess unbound iron. Serum TIBC is equal to total serum iron plus UIBC and may therefore be calculated using the results of the UIBC and serum iron determinations.
In certain embodiments, serum iron may be determined using a test based on the FerroZine method without deproteinization. Specimens are analyzed on the Roche Modular Instrument utilizing Roche Diagnostics Reagents. Under acidic conditions, iron is liberated from transferrin. The detergent clarifies lipemic samples. Ascorbate reduces the released Fe3+ ions to Fe2+ ions, which then react with FerroZine to form a colored complex. The color intensity is directly proportional to the iron concentration and can be measured photometrically.

[2] = tested on: subjects with anemia and Hemodialysis-Dependent Chronic Kidney Disease (HD-CKD) converting from ESA; experiment: Phase 3 randomized, double-blinded, active-controlled study in Hemodialysis-Dependent CKD (HD-CKD), Compound 1 vs darbepoetin alfa, 52 weeks; type: in vivo, human
Source text: This example describes a phase 3 randomized, double-blinded, active-controlled study to evaluate the efficacy and safety of oral Compound 1 for the maintenance treatment of anemia in subjects with Hemodialysis-Dependent Chronic Kidney Disease (HD-CKD) in approximately 300 subjects. Efficacy and safety of Compound 1 was compared with darbepoetin alfa for the maintenance treatment of anemia in subjects with DD-CKD after conversion from current ESA therapy.
Subjects deemed eligible for into the study included those who: • Be at least 20 years of age, inclusive; • Have diagnosis of Chronic Kidney Disease; • Be receiving hemodialysis or hemodialysis filtration at least three (3) times per week for ≥12 weeks before screening; • Be receiving the same formulation of ESA using the same administration route and the same dose interval (the dose interval should be the one described in the package insert for the ESA formulation) within 8 weeks prior to the first day of the screening period, using the dosages described below: Epoetin alfa and epoetin beta and kappa: ≥9,000 IU every weeks Darbepoetin alfa: ≥60 μg every weeks Epoetin beta pegol: ≥250 μg every 4 weeks • Have a mean of the most recent Hb levels at screening in the range of ≥9.5 to ≥12.0 g/dL. • Have a difference of <1.5 g/dL in Hb for the latest two tests in the screening period; • Have serum ferritin values of ≥100 ng/mL or transferrin saturation of ≥20% during the screening period; and • Have folic acid and vitamin B12 values above standard minimum values during the screening period.
Subjects deemed ineligible for inclusion in the study included those who: • Have anemia due to a cause other than CKD; • Have active bleeding or blood loss; • Have received a red blood cell transfusion; • Have uncontrolled hypertension; • Have active ocular fundus disease or cannot undergo an ocular fundus examination; • Have been diagnosed with cardiovascular disease, malignancy, or hemisiderosis;
Average Hb level at weeks 20 and 24 of the treatment period.
Hb level at each treatment visit; and
The proportion of patients within the target Hb range (above: ≥12.0 g/dL; within: 10.0-12.0 g/dL; below: <10.0 g/dL).
Safety endpoints for this study were defined as follows: • Adverse events (AEs); • Adverse drug reactions; and
Other endpoints for this study were defined as follows: • Iron-related parameters: serum ferritin, transferrin saturation (TSAT), total iron-binding capacity (TIBC), hepcidin, serum iron, and monthly dose of iron by any route of administration (oral and intravenous); and • Red blood cell indices.
Noninferiority: Compound 1 was considered noninferior to Darbepoetin alfa if the 95% confidence interval (CI) lower limit for the difference between Compound 1 and Darbepoetin alfa in the Least Squares (LS) Mean of the average Hb at weeks 20 and 24 was more than or equal to the predefined noninferiority margin of −0.75 g/dL. Difference in LS Mean refers to mixed-model repeated measures (MMRM) with an unstructured covariance matrix within patients.
Subjects were randomized 1:1 to either • Compound 1 with an initial dose of 300 mg/once daily and adjusted to 150-600 mg/once daily; or • Darbepoetin alfa (IV) initial dose is as follows:
The aim is to maintain a Hb level of 10.0-12.0 g/dL throughout the study.
Dose Adjustment Algorithm: • Increases in the dose were not allowed to occur more frequently than once every 4 weeks. Decreases in dose were allowed to occur more frequently. Frequent dose adjustments were avoided. • If the Hb rose rapidly, the dose was reduced. • If the Hb fell below 10.0 g/dL, the dose was increased. • If the Hb level exceeded 12.0 g/dL, the dose was reduced.
All subjects start with an initial dose of 300 mg/day at baseline visit. Dose levels of Compound 1 include 150, 300, 450, and 600 mg. Each subject took his/her first dose of study medication at the investigative site at the baseline visit. Thereafter, study medication was taken once daily on an outpatient basis. […]

[3] = tested on: subjects receiving hemodialysis, previously maintained on epoetin alfa; settings: human, in vivo
Protocol: The primary endpoint was mean hemoglobin (Hb) change from pre-baseline average to midtrial (Weeks 7-8) and end-of trial (Weeks 15-16) and was analyzed using available data (no imputation).

[4] = week 52 (LOCF) compared to baseline

O=C(O)CNC(=O)c1ncc(-c2cccc(Cl)c2)cc1O [Compound 1, Vadadustat]
serum iron levels ([1]; 6 weeks post administration): not associated with an increase in serum iron levels
total iron binding capacity (TIBC) levels ([1]; 6 weeks post administration, compared to placebo treated patients): increase
transferrin saturation (TSAT) ([1]; dose-related): decrease
Deaths due to AEs ([2]; 52 weeks): 2 (1.2) n (%)
deaths reported ([2]; 52 weeks, assessed as not related to study drug): two
LSMean of average Hb, weeks 20 and 24 ([2]; HD-CKD patients): 10.61 g/dL
mean Hb level at week 52 ([2]; HD-CKD patients): 10.39 g/dL
Difference (VDT-DA) in LSMean of average Hb, weeks 20 and 24 ([2]; HD-CKD patients, noninferiority margin −0.75 g/dL): -0.05 g/dL
proportion of patients with Hb levels within the target range of 10.0-12.0 g/dL ([2]; baseline): 81.5%
mean MCHC level, change ([2]; baseline to week 52): significantly increased
mean MCH level, change ([2]; baseline to week 52 (LOCF)): significantly increased
mean MCV level, change ([2]; baseline to week 52 (LOCF)): significantly increased
mean RDW, change ([2]; baseline to week 52 (LOCF)): significantly decreased
mean hepcidin level, change ([2]; baseline to week 52 (LOCF)): significantly decreased
mean total iron-binding capacity (TIBC), change ([2]; baseline to week 52 (LOCF)): significantly increased
LSMean Hb levels at week 52, subgroup analysis by patient background ([2]; dose adjustment 150-600 mg/day, target range 10.0-12.0 g/dL): maintained within the target range of 10.0-12.0 g/dL irrespective of the patient backgrounds
Adverse drug reaction ([2]; human, in vivo, 52 weeks): 18 (11.1) n (%)
Cardiovascular event, cardiac failure (AE of special interest) ([2]; human, in vivo, 52 weeks): 13 (8.0) n (%)
Diarrhea ([2]; human, in vivo, 52 weeks): 25 (15.4) n (%)
Discontinuation due to AEs ([2]; human, in vivo, 52 weeks): 16 (9.9) n (%)
Dose reduction or interruption of study drug due to AEs ([2]; human, in vivo, 52 weeks): 13 (8.0) n (%)
Hyperkalemia (AE of special interest) ([2]; human, in vivo, 52 weeks): 1 (0.6) n (%)
Malignancy (AE of special interest) ([2]; human, in vivo, 52 weeks): 7 (4.3) n (%)
Nasopharyngitis ([2]; human, in vivo, 52 weeks): 74 (45.7) n (%)
Pulmonary hypertension (AE of special interest) ([2]; human, in vivo, 52 weeks): 0 (0.0) n (%)
Retinal disorder (AE of special interest) ([2]; human, in vivo, 52 weeks): 21 (13.0) n (%)
Retinal hemorrhage ([2]; human, in vivo, 52 weeks): 9.9%
Serious AEs ([2]; human, in vivo, 52 weeks): 41 (25.3) n (%)
Serious adverse drug reaction ([2]; human, in vivo, 52 weeks): 0 (0.0) n (%)
Shunt stenosis ([2]; human, in vivo, 52 weeks): 23 (14.2) n (%)
Subjects with ≥ 1 AE ([2]; human, in vivo, 52 weeks): 154 (95.1) n (%)
diarrhea ([2]; human, in vivo, 52 weeks): 15.4%
incidence of AEs ([2]; human, in vivo, 52 weeks): 95.1%
incidence of serious AEs ([2]; human, in vivo, 52 weeks): 25.3%
nasopharyngitis ([2]; human, in vivo, 52 weeks): 45.7%
shunt stenosis ([2]; human, in vivo, 52 weeks): 14.2%
patients with a rapid rise in Hb levels (>2 g/dL/4 weeks) ([2]; in vivo): No patients
proportion of patients with an Hb excursion of ≥12 g/dL ([2]; in vivo): 25.3%
proportion of patients with an Hb excursion of ≥13 g/dL ([2]; in vivo): 3.7%
proportion of patients with Hb levels within the target range of 10.0-12.0 g/dL ([2]; week 24): 75.4%
proportion of patients with Hb levels within the target range of 10.0-12.0 g/dL ([2]; week 52): 75.7%
TSAT, change [2, 4]: no significant differences
serum ferritin, change [2, 4]: no significant differences
patients maintained within the target Hb range ([2]; weeks 24 and 52, dose adjusted per algorithm): approximately 80%
deaths during the study [3]: No deaths
